Experimental data published in US4769382A, “Preparation for preventing and treatment of skin radiation burn lesions” (priority 1986, dated 1988).

Key:
Format in all cases: in vivo, random-bred albino rats
[1] = system: skin of the auricle (rat); assay: Local radioprotective effect on skin of rat auricle upon β-irradiation (60 Gy); details: β-radiation; for Duration of response, dry desquamation / Duration of response, moist desquamation / Duration of response, severe erythema / Duration of response, weak erythema: Eeff 0.76 MeV, applied 20 minutes before irradiation, X ± m
Protocol: The effect of β-radiation was studied on the skin of floors of the auricle by way of using a flexible applicator containing a source of a soft beta-radiation of ^204 T1. The maximum energy (E) in tissues is […]. The dose rate of the employed sources was 7.2 and 12 Gy/h. […] The extent of the skin radioprotective effect was assessed by a number of clinical dermatological tests by recording visual observations over the progress of radiation dermatitis. The tests were effected by the blank method at strictly predetermined hours of the day by a team of specialists. The form of dermatitis in each irradiated skin locus (moist or dry desquamation, intense and weak erythema) was recorded daily by means of special codes over the entire observation period. The number of the same codes for every irradiated skin locus (frequencies of features) were summed up and a group mean value was calculated. […] The thus-obtained values were statistically processed and evaluated by means of the Student criterion. Therefore, the severity of radiodermatitis was quantified by means of the following tests: (a) duration of periods of light and severe erythema; (b) duration of periods of moist and dry desquamation.

skin of paws (rat) = assay: Radioprotective effect on skin of rat paws upon X-ray irradiation (20 and 30 Gy); details: 20 Gy
skin (rat) = assay: Comparative evaluation of radioprotective effect with known preparations, local X-ray irradiation 30 Gy
From the text: For a comparative evaluation the data obtained in a similar experiment with a number of known preparations (castamine, ionol, dimethylsulphoxide), as well as with eugenol (3-methoxy-4-hydroxyallylbenzene) and castor oil were used.
Ionol (4-methyl-2,6-ditretbutylphenol) is employed as control as an analog-antioxidant featuring a radioprotective activity.

back skin (rat) = assay: Antiburning effect on thermal burn (III degree) of the back skin
Protocol: Since the leading role in the pathogenesis of thermal death of cells is played by processes of injury of cellular membranes, the preparation according to the present invention has been tested for feasibility of its use as an antiburning preparation. […] The contact plate of the electric heater had the temperature of 200° C., the exposure time--10 seconds. […] As judged by the clinico-histological assessment, the severity of the thus-produced injury corresponded to a III degree burn. The course of treatment of the animals was started directly after effecting an experimental burn and continued till a complete healing of the wound surface. […] The ointments were prepared on lanolin or vaseline base with different content of the active principle. […] Vaseline and lanolin were used as control.

[2] = Eeff 8 keV, groups 5 (dimethylsulphoxide) and 6 (5% emulsion on vaseline), X ± m

SMILES | Diminution of response, moist desquamation [1] | Duration of response, dry desquamation [1] [days] | Duration of response, moist desquamation [1] [days] | Duration of response, severe erythema [1] [days] | Duration of response, weak erythema [1] [days] | Reduction of duration of radiation response stages, moist desquamation (skin (rat)) [%] | Total weighed evaluation (skin (rat)) [%] | further results
CCOC(=O)C1=C(C)NC(C)=C(C(=O)OCC)C1 [Compound of the invention, 2,6-dimethyl-3,5-diethoxycarbonyl-1,4-dihydropyridine] | 100 % of the control | 0.3 ± 0.2 | 0.0 ± 0.0 | 0.3 ± 0.3 | 1.7 ± 0.5 |  |  | Diminution of response, dry desquamation [1]: 86 % of the control; Diminution of response, severe erythema [1]: 86 % of the control
C[S+](C)[O-] [Dimethylsulphoxide, dimethylsulphoxide] | 100 % of the control | 1.0 ± 1.2 | 0.0 ± 0.0 | 1.3 ± 1.7 | 1.7 ± 1.7 | 30.0 | 22.5 | Diminution of response, dry desquamation (skin of paws (rat)): 50 % of the control; Duration of response, dry desquamation (skin of paws (rat); [2]): 2.8 ± 0.6 days; Duration of response, moist desquamation (skin of paws (rat); [2]): 0.1 ± 0.1 days; Duration of response, severe erythema (skin of paws (rat); [2]): 0.4 ± 0.3 days; Duration of response, weak erythema (skin of paws (rat); [2]): 1.6 ± 0.3 days
C=CCc1ccc(O)c(OC)c1 [Eugenol, 3-methoxy-4-hydroxyallylbenzene] |  |  |  |  |  | 36.0 | 27.5 | 
Cc1cc(C(C)(C)C)c(O)c(C(C)(C)C)c1 [Ionol, 4-methyl-2,6-ditertiarybutylphenol] |  |  |  |  |  | 43.0 | 37.85 | Reduction of duration of radiation response stages, erythema (skin (rat)): 28.0%
CC(C)(CO)C(O)C(=O)NCCCO (stereo not shown) [Panthenol] |  |  |  |  |  |  |  | Healing period, female (back skin (rat); female rats, control I (vaseline) 36.8 ± 6.8, control 2 (lanolin) 36.5 ± 6.5): 36.0 ± 7.0 days; Stimulant effect, female (back skin (rat); female rats, relative to control I (vaseline)): +2.2%; Healing period, male (back skin (rat); male rats, control I (vaseline) 32.8 ± 4.0, control 2 (lanolin) 33.1 ± 3.5): 29.7 ± 4.3 days; Stimulant effect, male (back skin (rat); male rats, relative to control 2 (lanolin)): +10,3%
